Consider one compound from US12063929B2, “3′-alkynyl abscisic acid derivatives as ABA antagonists” (University of Saskatchewan, priority 2018, dated 2024).

Assay [1] concerns Lentil (CDC Maxim). Description: Lentil (CDC Maxim) seed germination assay. In kind it is in vivo. As for the experimental part: 40 seeds were counted for each 100×15 mm petri dishes. Each petri dish contained two filter papers and 10 mL of test solutions. Then, they were wrapped with aluminium foil to cut off light. Wrapped plates were kept on lab bench at room temperature. Germinated seeds were counted everyday until one treatment reaches 100% germination (two days). Only light exposure was during plate counting. […]
All seeds from this experiment have been rinsed first with tap water and then with dH2O, frozen in liquid nitrogen and stored at −80° C. freezer.

The subject of assay [2] is Canary seed (CDC Bastia; 2018). Description: Canary seed germination assay. In kind it is in vivo.
Assay [3] has as its system Hard Red Spring wheat. Description: Hard Red Spring wheat seedling growth (root and shoot length). In kind it is in vivo. The protocol: For each treatment 3 replicates of 10 seeds were plated into petri dishes lined with two filter papers and 10 mL of test solution. The covered dishes were stored at room temperature in the dark. At 72 hours, germinated seeds were scored for root length and shoot length. The following dosages were used when studying the effect of the exemplary ABA analogues of the application on wheat shoot and root growth: control 1% DMSO. 10 μM ABA, 10 μM 1019, 100 μM exemplary compound 1019, 10 μM exemplary compound 1019 plus 10 μM ABA […] and 100 μM exemplary compound 1019 plus 10 μM ABA […].

Assay [4] relates to Canola seed (Nutrien PV200). Description: Canola seed germination assay. In kind it is in vivo. As for the experimental part:
For each treatment 6 replicates of 40 seeds were plated into petri dishes lined with two filter papers and 10 mL of test solution. The covered dishes were stored at room temperature in the dark. Germinated seeds were counted every 2 days for 8 days. The following dosages were used when studying the effect of exemplary compounds on canola germination: control 1% DMSO. 10 μM ABA, 100 μM 1019, and 100 μM 1019 plus 10 μM ABA.

For assay [5], the system named is wheat. Description: Wheat radical elongation assay. In kind it is in vivo. Conditions: 10 μM 1019 alone, 3.0 days post treatment (FIG. 11C). As for the experimental part:
Seeds were surface sterilized by incubation in 10% bleach for 20 min with shaking, then rinsed four times with sterile water. Four ml of test solutions were pipetted into petri dishes (100×15 mm) that contain a single filter paper. Fifteen seeds were added to each dish. For rice, barely, and wheat, the experiment involved five treatments (5 μM ABA; 5 μM ABA+10 μM 1019; 10 μM 1019; water control; water+EtOH+NaOH control), with three replications per treatment. For sorghum, treatments were 10 μM ABA; 10 μM ABA+20 μM 1019; 20 μM 1019; water control; water+EtOH+NaOH control. Dishes were sealed with Parafilm, and incubated in the dark at room temperature. Radical length was measured daily post emergence using ImageJ software; shown are 3 days post treatment for barley, wheat and sorghum and 4.5 days post treatment for rice.

Assay [6] deals with wild and RIL lentil genotypes. Nature of the assay: Seed germination in wild and RIL populations of lentil genotypes. In kind it is in vivo, lentil (L. orientalis, L. nigricans and others). The text has this: (§1) Fifty four lentil genotypes were selected for the experiment based on the existing data on the number of days it takes them to emerge and days to flowering. The seeds of each genotype were scarified before sowing and subjected to 3 treatments. VWR 415 9 cm filter papers were placed inside VWR 100 mm plastic petri dishes. Each petri dish was labeled on both the top and the bottom. Ten seed from each line was place in a labelled petri dish. Each lentil or faba bean genotype was replicated 3 times and subjected to 3 treatments (total number of experimental petri dishes=531). Thus: • 1. ABA exemplary compound solution [10 μM exemplary ABA analog compound 1019 in 1% DMSO, 99% H2O (LL10.1014.1) NaSaH (SL-1-16-1-53)] • 2. No exemplary ABA analogue solution (1% DMSO, 99% H2O) • 3. Distilled water—control
Seven milliliters of either exemplary ABA analogue solution, solution with no exemplary ABA analogue or distill water (control) was added into the corresponding labelled petri dishes containing the 10 scarified lentil seeds. For faba, bean, 10 ml because of their large seed size. The petri dishes were placed in a dark cupboard. Two digital temperature and humidity loggers (Tinytag) were placed inside the cupboards to monitor environmental conditions.
Germination was considered for a seed when a tiny radicle at least 5 mm or greater had emerged from the seed. The number of seeds that germinated was counted and recorded at 48 and 96 hours; and at 7 days. Some of the genotypes of interest were photographed (AF-S Micro NIKKOR 60 mm 1:2.8G camera) for comparison purpose. However, an excel sheet showing all results is available. At 48 hours, a total of 22 genotypes and their replicates were selected from the petri dishes treated with exemplary compound and distilled water were transplanted into pots (for faba bean) and trays (for lentils) in order to assess the length of time they took to flower while the rest of the petri dishes were kept till the end of the experiment that lasted a week.
The average temperature in the cupboards was 22.5° C. (±0.3) while the relative humidity ranged from 52.4 to 80.7 percent for the duration of the experiment. Studies carried out by Linda Gorim and Devini De. Silva, University of Saskatchewan

Assay [7] has as its system faba bean. Description: Faba bean seed germination and flowering. In kind it is in vivo. Conditions: 10 μM compound.
Source text: as §1
Seven milliliters of either exemplary ABA analogue solution, solution with no exemplary ABA analogue or distill water (control) was added into the corresponding labelled petri dishes containing the 10 scarified lentil seeds. For faba, bean, 10 ml because of their large seed size. The petri dishes were placed in a dark cupboard. […]
Germination was considered for a seed when a tiny radicle at least 5 mm or greater had emerged from the seed. The number of seeds that germinated was counted and recorded at 48 and 96 hours; and at 7 days. […]

Each structure is given as a SMILES string.

On to `CC1=C(C#Cc2ccccc2)C(=O)CC(C)(C)[C@@]1(O)/C=C/C(C)=C\C(=O)O` [Compound 1019, (2Z,4E)-5-((S)-1-Hydroxy-2,6,6-trimethyl-4-oxo-3-(phenylethynyl)cyclohex-2-en-1-yl)-3-methylpenta-2,4-dienoic acid], for which the “lentil seed germination, antagonism of ABA” value in assay [1] (10 μM ABA plus 10 μM compound (FIG. 6C)) was “strongest antagonist”. The lentil seed germination result in assay [1] (10 μM compound and 10 μM compound plus 10 μM ABA (FIG. 5)) is reported as “promoted”; in assay [1] (100 μM compound plus 10 μM ABA (FIG. 6B)), “overcame the effect”. Besides, the canary seed germination result in assay [2] (10 μM compound plus 10 μM ABA, day 4) is given as “did not”; in assay [2] (100 μM compound plus 10 μM ABA, day 4), “overcame inhibition”; in assay [2] (compound alone, 10 μM or 100 μM) it was “Neither concentration of exemplary compound 1019 affected germination”. Also, the root growth entry is “restored root growth to close to control length” in assay [3] (10 μM compound plus 10 μM ABA, 72 h (FIG. 9A)); “not affected” in assay [3] (100 μM compound alone, 72 h); “restored root growth to close to control length” in assay [3] (100 μM compound plus 10 μM ABA, 72 h (FIG. 9A)). The shoot growth result in assay [3] (100 μM compound alone, 72 h) is reported as “not inhibited”; in assay [3] (compound plus 10 μM ABA, 72 h (FIG. 9B)), “restored”. Also, the canola seed germination entry is “did not significantly affect” in assay [4] (100 μM compound alone, compared to control) and “restored to near control levels” in assay [4] (100 μM compound plus 10 μM ABA). In addition, the “radical length (Least Square mean); radical elongation” value in assay [5] is given as 2.386. Besides, the germination was determined as 100% in assay [6] (L. nigricans IG-72551 seeds, at 2 days, 10 μM compound); 40% in assay [6] (L. orientalis IG72770, day 2, 10 μM compound); 75% in assay [6] (L. orientalis IG72770, day 3, 10 μM compound); 100% in assay [6] (L. orientalis IG72770, day 4, 10 μM compound). In assay [6] (all genotypes that responded, 10 μM compound), the “germination uniformity between replicates” value was “eliminated the variable germination rates”. The days to flowering result is reported as “nor did it significantly affect” in assay [6] (lentil, transplanted at 48 hours, 10 μM compound) and “nor did it significantly affect” in assay [7] (transplanted at 48 hours). Moreover, the “number of lentil genotypes that responded positively (improved germination rate)” value in assay [6] (of 54 lentil genotypes screened, over 4 days, 10 μM compound) was found to be 18. In addition, the germination rates result in assay [7] is “no significant effect”.
